Data reported in patent US9814720B2, “Compositions and methods of inhibiting IL-17 expression of neutrophils” (priority 2014, dated 2017).

Tests used:
p-STAT3 [1] = assay: STAT3 phosphorylation in IL-6/23-stimulated murine bone marrow neutrophils (flow cytometry); format: cell-based, C57BL/6 mice; details: inhibitor 20 μM, 1 h IL-6+IL-23, FIG. 4C
Source text: Total bone marrow-derived cells were isolated from mouse femurs and tibias by flushing with RPMI and an 18-gauge needle. Erythrocytes were lysed with 1× lysis buffer (eBioscience), and bone marrow cells were separated on a Percoll (Fisher) gradient by density centrifugation (52%, 69%, and 78%). Cells at the 69-78% interface were harvested, and neutrophil purity (>98%) confirmed by flow cytometry and Wright-Giemsa staining. Murine or human neutrophils were suspended at a density of 10^6 cells/ml and incubated with […] of recombinant mouse or human IL-6 and 2 μg/ml IL-23 in RPMI, and the cells were maintained for 1-3 h at 37° C. in 5% CO2. Various inhibitors were used for assessing STAT3 activation. […] For the determination of RORγt-dependent signaling, SR1001 (20 μM; Sigma) was used, which inhibits RORγt binding to the IL-17 promoter site. All inhibitors were added to neutrophils 2 h prior to recombinant IL-6 and IL-23 stimulation. Corneas were dissected and incubated for 1 h at 37° C. in collaganese (80 U/ml) (C0130; Sigma-Aldrich), and washed in FACS buffer (PBS+1% FBS+0.5% Sodium azide). Ten corneas were pooled and analyzed by intracellular flow cytometry. Conversely, bone marrow cells or neutrophils were collected as described above and washed in FACS buffer. […] Cells were analyzed using a C6 Accuri flow cytometer (BD). […]

IL-17RC = IL-17RC gene expression by qPCR in IL-6/23-stimulated murine neutrophils; format: cell-based; details: IL-6/23 1 h, FIG. 6A
Source text: Total bone marrow-derived cells were isolated from mouse femurs and tibias by flushing with RPMI and an 18-gauge needle. Erythrocytes were lysed with 1× lysis buffer (eBioscience), and bone marrow cells were separated on a Percoll (Fisher) gradient by density centrifugation (52%, 69%, and 78%). Cells at the 69-78% interface were harvested, and neutrophil purity (>98%) confirmed by flow cytometry and Wright-Giemsa staining.
(§1) Murine or human neutrophils were suspended at a density of 10^6 cells/ml and incubated with […] of recombinant mouse or human IL-6 and 2 μg/ml IL-23 in RPMI, and the cells were maintained for 1-3 h at 37° C. in 5% CO2. Various inhibitors were used for assessing STAT3 activation. For STAT3, neutrophils were treated with either the STAT3-SH2 inhibitor, Stattic (20 μM) obtained from Tocris, or the JAK-1, 2 inhibitor, INC424, (aka Ruxolitinib; 20 μM (Selleck BioChem)). For the determination of RORγt-dependent signaling, SR1001 (20 μM; Sigma) was used, which inhibits RORγt binding to the IL-17 promoter site. All inhibitors were added to neutrophils 2 h prior to recombinant IL-6 and IL-23 stimulation.
Neutrophil and corneal cell RNA was extracted using the RNeasy mini kit according to the manufacturer's directions (Qiagen, Valencia, Calif.). The quality of RNA was checked by spectrophotometry, and only samples with a 260/280 ratio of 2.0 were used to generate cDNA. The SuperScript First Strand synthesis system (Invitrogen) was used to generate cDNA according to the manufacturer's directions.
The SYBR green system (Applied Biosystems, Carlsbad, Calif.) was utilized for quantitative PCR (qPCR) using ABI Biosystems. PCR products were then run on a 1% agarose gel, and visualized using ethidium bromide. PCR products were compared to Actb (encoding the β-actin gene) or GAPDH as the controls for gel loading.

[2] = tested on: bone marrow-derived murine neutrophils; assay: ROS production (CFDA) by murine bone marrow neutrophils incubated with Aspergillus hyphae; format: cell-based, C57BL/6 mice; details: IL-6/23-stimulated, inhibitor 20 μM, FIG. 6C
Method: Murine and human neutrophils were incubated with p-STAT3 (20 μM Stattic or 20 μM INC424) or RORγt inhibitors (20 μM SR1001) for 2 h. Then the cells were stimulated with […] of rIL-6 and 2 μg/ml of rIL-23 for 3 h, washed, and 2×10^5 bone marrow-derived murine neutrophils or 10^5 human peripheral blood neutrophils, with or without recombinant IL-17A, were added to each well with growing hyphae. RPMI media was used as positive control (unimpaired growth), and PBS was used as a negative control (no growth (data not shown)). After 16 h the wells were washed with PBS and the dsRed fungal mass was quantified in a 96-well fluorometer at 550/600 nm excitation/emission filter (Synergy HT, Biotek).
In vitro ROS production measured by CFDA was previously described. Briefly, 100 μg/100 μl of A. fumigatus hyphal extract (AspHE) were incubated with 2×10^5 murine or human neutrophils. Neutrophils were treated for 1 h with 1 μM Carboxyfluorescein diacetate (H2CFDA (Sigma)), which will fluoresce following ROS oxidation. Neutrophils were collected and analyzed by flow cytometry. H2CFDA pulsed neutrophils that had not been incubated with AspHE were used to set the ROS histogram gate. The average mean intensity was calculated by Accuri flow software and graphed in Prism.

p-STAT3 [3] = assay: Western blot of total cell lysate of IL-6/23-stimulated human neutrophils; format: cell-based; details: IL-6/23 1 h, FIG. 5A
Method: Neutrophils were isolated from peripheral blood of healthy donors. Peripheral blood was incubated in 3% Dextran, and neutrophils isolated by Ficoll gradient centrifugation (Fisher Scientific), with neutrophil purity determined by staining with Wright-Giemsa.
as §1
Neutrophils collected from primed or naïve C57BL/6 mice or unstimulated murine or human neutrophils were incubated with recombinant IL-6 and IL-23 for 60 min. After this time, cells were washed in PBS and lysed in ice-cold 1× lysis buffer (Cell Signaling Technology, Beverly, Mass.). Total protein was quantified using the BCA method, denatured with 2× Laemmli buffer (Sigma) and heated to 95° C. for 5 minutes. Nuclear extracts of the cells were prepared with the Pierce nuclear extract kit per the manufacturer's directions (Pierce). Ten μg of total protein was analyzed on a 12% SDS polyacrylamide gel, and transferred to nitrocellulose. Blots were probed with the following primary antibodies: Total STAT3 (R&D), p-STAT3 (R&D), RORγt (eBioscience), TATA box binding protein (TBP (Abcam)), and β-actin (Cell Signaling Technology). HRP-conjugated secondary antibodies were used (Santa Cruz Biotechnologies), and western blots developed with Supersignal West Femto Maximum Sensitivity Substrate (Pierce).

## O=[N+]([O-])c1ccc2c(c1)S(=O)(=O)C=C2 [Stattic]
p-STAT3 [1]
  p-STAT3 in IL-6/23 stimulated neutrophils: completely inhibited
IL-17RC
  IL-17RC expression: did not inhibit
[2]; plus rIL-17A
  ROS production: ROS production was increased
[2]; without rIL-17A
  ROS production: not increased above the level produced by naïve neutrophils
p-STAT3 [3]
  RORγt expression (western blot): not altered
  total STAT3 expression (western blot): not altered
p-STAT3 [3]; inhibitor 20 μM
  p-STAT3 (western blot): inhibited
